Experimental data as given in US10111874B2, “Combination therapies for treatment of cancer” (Araxes Pharma LLC, priority 2014, dated 2018).

Key:
[1] = test system: SW1573 cells; experiment: Western blots of KRAS signaling nodes and cleaved PARP in SW1573 cells; assay type: cell-based
Description: (§1) Western blots were used to analyze downstream KRAS signaling nodes (AKT, ERK, RSK, S6) and a marker of apoptosis (cleaved PARP). […] Taxol (paclitaxel) was used as a positive control.

[2] = test system: H358 cells (KRAS G12C); experiment: Western blots of downstream KRAS signaling nodes and apoptosis markers in H358 cells; assay type: cell-based; conditions: for G1 arrest and induction of apoptosis: H358 cells (FIG. 9, left panel); for apoptosis based on c-caspase 3 levels: H358 cells (FIG. 11); for apoptosis based on cleaved PARP levels: H358 cells, erlotinib 5 μM
Protocol: FIG. 2 depicts western blot analysis of downstream targets of K-Ras signaling. […] Paclitaxel was used as a positive control. The western blots were probed with antibodies for p-AKT, p-ERK, total ERK, p-RSK, p-S6 and cleaved PARP. Cleaved PARP is indicative of apoptosis. B) A549 cells that express the G12S isoform of K-Ras were used a control for K-Ras G12C inhibitor specificity. A549 cells were treated as in A).
(§2) Western blots were used to analyze downstream KRAS signaling nodes (AKT, ERK, RSK, S6) and a marker of apoptosis (cleaved PARP).
as §1
Western blots were used to analyze downstream KRAS signaling nodes (AKT, ERK, RSK, S6) and a marker of apoptosis (cleaved PARP). […] Caspase activity was measured using a standard caspase activity luminescence assay (Capase-Glo, Promega).

[3] = test system: KRAS G12C mutant cells lines (H358, H2122, H2030, H1792, Calu-1, MiaPaca2, and NCI-H23); experiment: Caspase activity luminescence assay (Capase-Glo) with compound II-64 alone or in combination; assay type: cell-based; conditions: alone
Protocol: Caspase activity was measured using a standard caspase activity luminescence assay (Capase-Glo, Promega). Taxol (paclitaxel) was used as a positive control.

[4] = test system: H358 cells; experiment: Flow cytometry, cell cycle progression and apoptosis (sub-diploid cells); assay type: cell-based; conditions: single agents
Protocol: B) The average apoptosis response of NCI-H358, NCI-H1792, NCI-H2122, and SW1573 cell lines generated by flow cytometry as described in A).
(§3) Apoptosis was measured via flow cytometry. Gated populations=% of subdiploid apoptotic cells.
as §3
FIG. 7 depicts apoptosis in NCI-H358 cells treated with II-64 (10 μM), SN38 (5 nM), or a combination treatment (II-64+SN38). […] Apoptosis was measured via flow cytometry. Gated populations=% of subdiploid apoptotic cells.
Flow cytometry was used to evaluate KRAS G12C inhibitor combination treatments.
Next, flow cytometry was used to evaluate a KRAS G12C inhibitor in combination with the chemotherapeutic agents paclitaxel or docetaxel.

[5] = molecular target: T1, KRAS G12C 1-169, his-tagged protein, GDP-loaded (Homo sapiens, UniProt P01116, G12C); experiment: Biochemical assay: covalent binding to KRAS G12C analyzed by mass spectrometry; conditions: compounds 247-342, measured at 30 min; listed as 272
T1 construct: KRAS G12C 1-169, his-tagged protein, GDP-loaded

[6] = test system: mutant cells (H358, Calu-1, MiaPaca2, NCI-H23, SW1463, H1792); experiment: Western blots / dot blot arrays of signaling pathways maintained or hyper-activated following KRAS G12C inhibition; assay type: cell-based; conditions: 48 hours, versus untreated cell lines
Description: FIG. 1 provides western blots for identifying synergistic pathways for targeting in combination with KRAS G12C inhibition. Shown are dot blot arrays for detection of phosphorylated receptor tyrosine kinases (p-RTK) and phosphorylated signaling kinases (ie. p-ERK, or p-AKT) for indicated cell lines treated with indicated K-Ras G12C inhibitor. Notable signaling targets and their respective pathways that are induced or maintained following treatment are summarized for various cell lines.
Western blots were used to analyze downstream KRAS signaling nodes (AKT, ERK, S6, EGFR/HER2, SRC, MET) and a transcription factor (STAT3). […] Sustained or induced pathways were assessed by comparing untreated cell lines with those treated by compound I-272.

[7] = test system: Calu-1 cells; experiment: Western blots of KRAS signaling nodes and cleaved PARP in Calu-1 cells; assay type: cell-based; conditions: I-272 30, 100, 300, and 1000 nM, Dasatinib 150 nM
Description: as §2

[8] = test system: mutant cell lines (H358, NCI-H23, SW1463, H1792, Calu-1, SW1573); experiment: Western blots, KRAS G12C inhibitor with SRC inhibitors in multiple cell lines; assay type: cell-based; conditions: I-272 1 μM
Description: as §2
As a control, a non-G12C cell line (A549) was subjected to the same single agent and combination treatments. The KRAS G12C inhibitors show no single agent or additive/synergistic effects in this line.

[9] = test system: mutant cell lines (H358, H1792, MiaPaca2); experiment: Western blots, KRAS G12C inhibitor with JAK inhibitor momelotinib in multiple cell lines; assay type: cell-based
Protocol: Western blots were used to analyze downstream KRAS signaling nodes (AKT, ERK, S6), a transcription factor (STAT3), and a marker of apoptosis (cleaved PARP). Treatment of mutant cell lines (H358, H1792, MiaPaca2) or a control cell line (A549) was tested with an exemplary KRAS G12C inhibitor (compound I-272, 0.3 and 1 μM) alone or in combination with momelotinib (JAK inhibitor, 5 μM). […] Specifically, when compound I-272 is used in combination with momelotinib (JAK inhibitor) PARP is detected in H358, H1792, and MiaPaca2.

[10] = test system: mutant cell lines (NCI-H23, SW1573); experiment: Western blots, KRAS G12C inhibitor with ruxolitinib or momelotinib; assay type: cell-based; conditions: I-272 1 μM; for apoptosis based on cleaved PARP levels: ruxolitinib or momelotinib 1 and 5 μM
Protocol: Western blots were used to analyze downstream KRAS signaling nodes (AKT, ERK, S6), transcription factors (STAT3, IκBα), protein marker (TBK1) and a marker of apoptosis (cleaved PARP). Treatment of mutant cell lines (NCI-H23, SW1573) were tested with an exemplary KRAS G12C inhibitor (compound I-272, 1 μM) alone or in combination with one of ruxolitinib (JAK 1/2 inhibitor, 1 and 5 μM) or momelotinib (JAK1/2, TBK1, IKKe inhibitor, 1 and 5 μM). […] Further, there is synergistic p-S6 inhibition in each of the combinations. Synergistic apoptosis strongly occurred when TBK1 and non-canonical NFκB signaling is inhibited.

[11] = I-272 0.3 and 1 μM, alone, 24 hours

T1 sequence (P01116 1-169 isoform P01116-2 G12C): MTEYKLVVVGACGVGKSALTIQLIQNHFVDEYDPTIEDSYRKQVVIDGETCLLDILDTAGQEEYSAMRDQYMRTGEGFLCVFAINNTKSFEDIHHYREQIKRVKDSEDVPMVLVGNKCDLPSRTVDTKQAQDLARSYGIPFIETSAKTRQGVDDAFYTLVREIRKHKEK

## Cc1nc(NC(=O)N2CCC[C@H]2C(N)=O)sc1-c1ccnc(C(C)(C)C(F)(F)F)c1 [BYL719, Alpelisib]
[1]
  apoptosis based on cleaved PARP levels: does not induce robust apoptosis

## C#Cc1cccc(Nc2ncnc3cc(OCCOC)c(OCCOC)cc23)c1 [erlotinib, reference compound]
[2]
  G1 arrest and induction of apoptosis: G1 arrest with low to modest induction of apoptosis
  apoptosis based on c-caspase 3 levels: does not induce robust apoptosis
[2]; 24 hours, G12C inhibitors 10 μM, GDC0941 2 μM (FIG. 2)
  apoptosis based on cleaved PARP levels: does not induce robust apoptosis
[2]; I-74 15 μM, PD0325901 100 nM, GDC0941 1 μM
  apoptosis based on cleaved PARP levels: does not induce robust apoptosis
[3]
  caspase activity: did not induce significant caspase activity
[4]
  cell cycle arrest and induction of apoptosis (flow cytometry): G1 arrest with low to modest induction of apoptosis

## C=CC(=O)N1CCN(c2ncnc3c(F)c(-c4cc(O)cc5ccccc45)c(Cl)cc23)CC1 [Compound I-272, 1-(4-(6-chloro-8-fluoro-7-(3-hydroxynaphthalen-1-yl)quinazolin-4-yl)piperazin-1-yl)prop-2-en-1-one]
[5]
  Binding %: ++++ (++++indicates binding activity greater than 75%)
[6]
  sustained or induced pathways following KRAS G12C inhibition: sustained or induced pathways suggesting targeting with RTK, PI3K, mTOR, SRC, and JAK/STAT inhibitors
[7]; 24 hours
  inhibition of downstream KRAS signaling nodes (Western blot): clear and, at higher concentrations, nearly complete inhibition of p-ERK and p-RSK
[7]
  apoptosis based on cleaved PARP levels: minimal cleaved PARP
[8]; alone, 24 hours
  inhibition of p-ERK: clear and, in some cases (H358, SW1463, Calu-1), nearly complete inhibition of p-ERK
[8]; dasatinib 100 nM, 24 hours
  inhibition of p-S6: inhibition of p-S6 in H358, SW1463, H1792, and Calu-1 cell lines
[8]; dasatinib 100 nM, Saracatinib 2 μM
  apoptosis based on cleaved PARP levels: minimal cleaved PARP
[9]; [11]
  inhibition of S6: some to nearly complete inhibition of S6 (in H358)
  inhibition of p-ANK: some inhibition of p-ANK (in H358)
  inhibition of p-ERK: some and nearly complete inhibition of p-ERK (in H1792 and H358 respectfully)
[9]; I-272 0.3 and 1 μM, momelotinib 5 μM
  induction of apoptosis (cleaved PARP): some induction of apoptosis as observed by the presence of cleaved PARP (in H358 and MiaPaca2)
[9]; I-272 alone, also control cell line A549
  induction of STAT3: induces STAT3 in certain cell lines (slight in H358 and H1792, strong in MiaPaca2 and A549)
[10]; alone, 24 hours
  inhibition of p-ERK: clear and nearly complete inhibition of p-ERK
  inhibition of p-S6 and p-AKT: inhibition of p-S6 and p-AKT in NCI-H23
[10]
  apoptosis based on cleaved PARP levels: minimal cleaved PARP

## CS(=O)(=O)N1CCN(Cc2cc3nc(-c4cccc5[nH]ncc45)nc(N4CCOCC4)c3s2)CC1 [GDC0941, 2-(1H-indazol-4-yl)-6-(4-methanesulfonyl-piperazin-1-ylmethyl)-4-morpholin-4-yl-thieno[3,2-d]pyrimidine, reference compound]
[2]
  G1 arrest and induction of apoptosis: G1 arrest with low to modest induction of apoptosis
  apoptosis based on c-caspase 3 levels: does not induce robust apoptosis
[4]
  cell cycle arrest and induction of apoptosis (flow cytometry): G1 arrest with low to modest induction of apoptosis

## N#CCNC(=O)c1ccc(-c2ccnc(Nc3ccc(N4CCOCC4)cc3)n2)cc1 [momelotinib, reference compound]
[10]
  apoptosis based on cleaved PARP levels: does not induce robust apoptosis
